In publication PMC6562117, “The role of the tyrosine kinase Wzc (Sll0923) and the phosphatase Wzb (Slr0328) in the production of extracellular polymeric substances (EPS) by Synechocystis PCC 6803” (MicrobiologyOpen, 2019):

Key:
Wzc (Sll0923); His6-Wzc = biological target: T1, Wzc (Sll0923); His6-Wzc (Synechocystis sp. PCC 6803, UniProt P72877); test: ATP consumption by luciferase bioluminescence (ENLITEN); format: biochemical; details: 25 mM Tris-HCl pH 7.0, 1 mM DTT, 5 mM MgCl2, 30 C, 45 min; heat-inactivated Wzc as control
T1 construct: gene epsB
T1 sequence (P72877 entry or part of it): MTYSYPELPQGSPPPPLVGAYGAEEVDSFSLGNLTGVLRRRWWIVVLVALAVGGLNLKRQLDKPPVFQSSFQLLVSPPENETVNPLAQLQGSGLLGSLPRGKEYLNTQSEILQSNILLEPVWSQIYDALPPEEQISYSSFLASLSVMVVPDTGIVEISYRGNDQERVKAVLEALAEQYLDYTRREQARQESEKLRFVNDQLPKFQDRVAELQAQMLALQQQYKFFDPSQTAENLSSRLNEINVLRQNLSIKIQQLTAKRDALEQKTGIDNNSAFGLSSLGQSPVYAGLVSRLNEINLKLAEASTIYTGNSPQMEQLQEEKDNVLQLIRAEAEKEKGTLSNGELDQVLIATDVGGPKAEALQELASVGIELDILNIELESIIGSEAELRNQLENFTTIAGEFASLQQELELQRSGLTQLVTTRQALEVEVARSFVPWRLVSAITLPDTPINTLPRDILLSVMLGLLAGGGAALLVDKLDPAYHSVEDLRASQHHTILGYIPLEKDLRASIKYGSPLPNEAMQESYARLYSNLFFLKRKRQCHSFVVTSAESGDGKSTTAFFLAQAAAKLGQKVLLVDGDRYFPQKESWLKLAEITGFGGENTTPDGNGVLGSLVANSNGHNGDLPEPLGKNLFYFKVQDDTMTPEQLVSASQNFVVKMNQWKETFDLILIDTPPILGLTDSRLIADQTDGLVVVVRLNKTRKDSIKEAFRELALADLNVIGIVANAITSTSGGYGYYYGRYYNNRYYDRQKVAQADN

Wzb (Slr0328); His6-Wzb = biological target: T2, Wzb (Slr0328); His6-Wzb (Synechocystis sp. PCC 6803, UniProt Q55535); test: continuous p-nitrophenol release at […] nm; format: biochemical; details: 10 mM pNPP, 100 mM sodium citrate pH 6.5, 1 mM EDTA, 0.1% beta-mercaptoethanol, 30 C
T2 construct: one monomer in the asymmetric unit
T2 sequence (Q55535 whole entry): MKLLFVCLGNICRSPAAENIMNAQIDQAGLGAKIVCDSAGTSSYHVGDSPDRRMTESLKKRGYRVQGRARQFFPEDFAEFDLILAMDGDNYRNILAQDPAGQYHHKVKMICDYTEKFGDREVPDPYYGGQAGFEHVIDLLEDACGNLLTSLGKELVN

SMILES	ATP consumption by luciferase bioluminescence (ENLITEN) (Wzc (Sll0923); His6-Wzc)	continuous p-nitrophenol release at 405 nm (Wzb (Slr0328); His6-Wzb)
Nc1ncnc2c1ncn2[C@@H]1O[C@H](COP(=O)(O)OP(=O)(O)OP(=O)(O)O)[C@@H](O)[C@H]1O [ATP]	Wzc is capable of ATP binding and hydrolysis	
O=[N+]([O-])c1ccc(OP(=O)(O)O)cc1 [p-nitrophenyl phosphate]		we first used a p‐nitrophenyl phosphate hydrolysis assay to confirm that Wzb functions as a phosphatase
